Reference: PubChem BioAssay (NCI)
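These data come from cells grown in 96-well plates and exposed to compound for 48 hours at five concentrations. Abbreviation: GI50, concentration required for 50% inhibition of growth. TGI is the concentration that stops growth completely.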

Assays:
Assay in all cases: NCI tumour cell line growth inhibition, 48 h
HCT-116 colon = system: HCT-116 colon
NCI-H522 lung = system: NCI-H522 lung
BT-549 breast = system: BT-549 breast
MOLT-4 leukemia = system: MOLT-4 leukemia
SF-268 CNS = system: SF-268 CNS
SK-OV-3 ovarian = system: SK-OV-3 ovarian
U251 CNS = system: U251 CNS
RPMI-8226 leukemia = system: RPMI-8226 leukemia
CCRF-CEM leukemia = system: CCRF-CEM leukemia
SNB-19 CNS = system: SNB-19 CNS
NCI-H23 lung = system: NCI-H23 lung
OVCAR-3 ovarian = system: OVCAR-3 ovarian
HL-60(TB) leukemia = system: HL-60(TB) leukemia
A498 renal = system: A498 renal
HCC-2998 colon = system: HCC-2998 colon
PC-3 prostate = system: PC-3 prostate
SN12C renal = system: SN12C renal
EKVX NSCLC = system: EKVX NSCLC
SK-MEL-2 melanoma = system: SK-MEL-2 melanoma
NCI-H226 lung = system: NCI-H226 lung
SR leukemia = system: SR leukemia
OVCAR-8 ovarian = system: OVCAR-8 ovarian
HCT-15 colon = system: HCT-15 colon
SF-539 CNS = system: SF-539 CNS
A549 NSCLC = system: A549 NSCLC
CAKI-1 renal = system: CAKI-1 renal
MCF7 breast = system: MCF7 breast
HOP-62 NSCLC = system: HOP-62 NSCLC
SK-MEL-5 melanoma = system: SK-MEL-5 melanoma
UACC-62 melanoma = system: UACC-62 melanoma
OVCAR-5 ovarian = system: OVCAR-5 ovarian
NCI/ADR-RES ovarian = system: NCI/ADR-RES ovarian
UACC-257 melanoma = system: UACC-257 melanoma
UO-31 renal = system: UO-31 renal
NCI-H460 lung = system: NCI-H460 lung
SNB-75 CNS = system: SNB-75 CNS
K-562 leukemia = system: K-562 leukemia
MALME-3M melanoma = system: MALME-3M melanoma
ACHN renal = system: ACHN renal
OVCAR-4 ovarian = system: OVCAR-4 ovarian
M14 melanoma = system: M14 melanoma
TK-10 renal = system: TK-10 renal
IGROV1 ovarian = system: IGROV1 ovarian
HT29 colon = system: HT29 colon
HOP-92 NSCLC = system: HOP-92 NSCLC
DU-145 prostate = system: DU-145 prostate
T-47D breast = system: T-47D breast
SW-620 colon = system: SW-620 colon
KM12 colon = system: KM12 colon
SK-MEL-28 melanoma = system: SK-MEL-28 melanoma
LOX IMVI melanoma = system: LOX IMVI melanoma
RXF 393 renal = system: RXF 393 renal
SF-295 CNS = system: SF-295 CNS
COLO 205 colon = system: COLO 205 colon
MDA-MB-435 = system: MDA-MB-435
HS 578T breast = system: HS 578T breast
MDA-MB-231 breast = system: MDA-MB-231 breast
786-0 renal = system: 786-0 renal

## N#CSc1c[nH]c2ccc(/C=C/C(=O)/C=C(/C=C/c3ccc4[nH]cc(SC#N)c4c3)OB(F)F)cc12
HCT-116 colon
  GI50: 0.0887 µM
  TGI: 0.375 µM
NCI-H522 lung
  GI50: 0.212 µM
  TGI: 0.653 µM
BT-549 breast
  GI50: 0.835 µM
  TGI: 3.43 µM
MOLT-4 leukemia
  GI50: 0.306 µM
  TGI: 1.62 µM
SF-268 CNS
  GI50: 1.12 µM
  TGI: 2.8 µM
SK-OV-3 ovarian
  GI50: 25.3 µM
  TGI: 88.3 µM
U251 CNS
  GI50: 1.04 µM
  TGI: 2.99 µM
RPMI-8226 leukemia
  GI50: 0.522 µM
CCRF-CEM leukemia
  GI50: 0.267 µM
  TGI: 4.4 µM
SNB-19 CNS
  GI50: 3.32 µM
  TGI: 14.7 µM
NCI-H23 lung
  GI50: 0.947 µM
  TGI: 3.86 µM
OVCAR-3 ovarian
  GI50: 0.264 µM
  TGI: 0.762 µM
HL-60(TB) leukemia
  GI50: 0.949 µM
  TGI: 4.18 µM
A498 renal
  GI50: 3.24 µM
  TGI: 12.3 µM
HCC-2998 colon
  GI50: 3.72 µM
  TGI: 19.7 µM
PC-3 prostate
  GI50: 0.241 µM
  TGI: 1.95 µM
SN12C renal
  GI50: 0.442 µM
  TGI: 3.13 µM
EKVX NSCLC
  GI50: 0.535 µM
  TGI: 3.53 µM
SK-MEL-2 melanoma
  GI50: 2.92 µM
  TGI: 8.04 µM
NCI-H226 lung
  GI50: 2.18 µM
  TGI: 5.62 µM
SR leukemia
  GI50: 0.128 µM
OVCAR-8 ovarian
  GI50: 0.577 µM
  TGI: > 100 µM
HCT-15 colon
  GI50: 0.249 µM
  TGI: 1.09 µM
SF-539 CNS
  GI50: 1.86 µM
  TGI: 6.17 µM
A549 NSCLC
  GI50: 3.31 µM
  TGI: 17.6 µM
CAKI-1 renal
  GI50: 0.531 µM
  TGI: 4.05 µM
MCF7 breast
  GI50: 0.458 µM
  TGI: 3.5 µM
HOP-62 NSCLC
  GI50: 3.86 µM
  TGI: 38.9 µM
SK-MEL-5 melanoma
  GI50: 1.37 µM
  TGI: 2.93 µM
UACC-62 melanoma
  GI50: 1.2 µM
  TGI: 2.85 µM
OVCAR-5 ovarian
  GI50: 2.24 µM
  TGI: 8.68 µM
NCI/ADR-RES ovarian
  GI50: 1.74 µM
  TGI: > 100 µM
UACC-257 melanoma
  GI50: 2.82 µM
  TGI: 33.6 µM
UO-31 renal
  GI50: 0.212 µM
  TGI: 0.808 µM
NCI-H460 lung
  GI50: 0.763 µM
  TGI: 2.37 µM
SNB-75 CNS
  GI50: 2.38 µM
  TGI: 11.1 µM
K-562 leukemia
  GI50: 0.281 µM
  TGI: > 100 µM
MALME-3M melanoma
  GI50: 0.261 µM
  TGI: 0.845 µM
ACHN renal
  GI50: 0.208 µM
  TGI: 0.471 µM
OVCAR-4 ovarian
  GI50: 0.344 µM
  TGI: 3.11 µM
M14 melanoma
  GI50: 0.374 µM
  TGI: 1.68 µM
TK-10 renal
  GI50: 0.698 µM
  TGI: 14.8 µM
IGROV1 ovarian
  GI50: 0.352 µM
  TGI: 1.37 µM
HT29 colon
  GI50: 0.394 µM
  TGI: 2.38 µM
HOP-92 NSCLC
  GI50: 0.321 µM
  TGI: 1.5 µM
DU-145 prostate
  GI50: 0.694 µM
  TGI: 2.55 µM
T-47D breast
  GI50: 0.791 µM
  TGI: 8.6 µM
SW-620 colon
  GI50: 0.333 µM
  TGI: 1.16 µM
KM12 colon
  GI50: 1.02 µM
  TGI: 4.82 µM
SK-MEL-28 melanoma
  GI50: 0.498 µM
  TGI: 2.29 µM
LOX IMVI melanoma
  GI50: 0.202 µM
  TGI: 0.571 µM
RXF 393 renal
  GI50: 0.24 µM
  TGI: 0.852 µM
SF-295 CNS
  GI50: 3.47 µM
  TGI: 14.4 µM
COLO 205 colon
  GI50: 0.652 µM
  TGI: 3.52 µM
MDA-MB-435
  GI50: 1.44 µM
  TGI: 3.25 µM
HS 578T breast
  GI50: 1.36 µM
  TGI: > 100 µM
MDA-MB-231 breast
  GI50: 0.917 µM
  TGI: 2.34 µM
786-0 renal
  GI50: 0.343 µM
  TGI: 3.44 µM

## Cc1cc(O)c(C2=NN(c3ccc(S(N)(=O)=O)cc3)C(c3ccc(N(C)C)cc3)C2)c(C)c1Cl (stereo not given)
HCT-116 colon
  GI50: 7.6 µM
  TGI: 21.1 µM
NCI-H522 lung
  GI50: 18.6 µM
  TGI: 48.4 µM
BT-549 breast
  GI50: 15.4 µM
  TGI: 43.3 µM
MOLT-4 leukemia
  GI50: 12.7 µM
  TGI: 43.2 µM
SF-268 CNS
  GI50: 18.7 µM
  TGI: 37.2 µM
SK-OV-3 ovarian
  GI50: 27.4 µM
  TGI: 90.8 µM
U251 CNS
  GI50: 11.8 µM
  TGI: 26.9 µM
RPMI-8226 leukemia
  GI50: 7.25 µM
  TGI: 37.5 µM
CCRF-CEM leukemia
  GI50: 15.1 µM
  TGI: 43.6 µM
SNB-19 CNS
  GI50: 22.2 µM
  TGI: 62.6 µM
NCI-H23 lung
  GI50: 17.7 µM
  TGI: 43.7 µM
OVCAR-3 ovarian
  GI50: 17.8 µM
  TGI: 33.3 µM
HL-60(TB) leukemia
  GI50: 20.3 µM
  TGI: 50 µM
A498 renal
  GI50: 26.7 µM
  TGI: 43.9 µM
HCC-2998 colon
  GI50: 14.8 µM
  TGI: 30.9 µM
PC-3 prostate
  GI50: 9.21 µM
  TGI: 23.9 µM
SN12C renal
  GI50: 9.62 µM
  TGI: 25 µM
EKVX NSCLC
  GI50: 13.3 µM
  TGI: 36.1 µM
SK-MEL-2 melanoma
  GI50: 21.4 µM
  TGI: 43.6 µM
NCI-H226 lung
  GI50: 13.4 µM
  TGI: 29.4 µM
SR leukemia
  GI50: 14.1 µM
  TGI: 41 µM
OVCAR-8 ovarian
  GI50: 27.3 µM
  TGI: > 100 µM
HCT-15 colon
  GI50: 14.2 µM
  TGI: 32 µM
SF-539 CNS
  GI50: 15.7 µM
  TGI: 29.3 µM
A549 NSCLC
  GI50: 14.7 µM
  TGI: 43.5 µM
CAKI-1 renal
  GI50: 23.3 µM
  TGI: > 100 µM
MCF7 breast
  GI50: 6.55 µM
  TGI: 24.2 µM
HOP-62 NSCLC
  GI50: 18.6 µM
  TGI: 34.8 µM
SK-MEL-5 melanoma
  GI50: 14.5 µM
  TGI: 27.8 µM
UACC-62 melanoma
  GI50: 9.92 µM
  TGI: 25.8 µM
OVCAR-5 ovarian
  GI50: 19.4 µM
  TGI: 38.1 µM
NCI/ADR-RES ovarian
  GI50: 19.3 µM
  TGI: 76.4 µM
UACC-257 melanoma
  GI50: 26.3 µM
  TGI: 63.1 µM
UO-31 renal
  GI50: 12.7 µM
  TGI: 29.4 µM
NCI-H460 lung
  GI50: 12.2 µM
  TGI: 27.4 µM
SNB-75 CNS
  GI50: 17 µM
  TGI: 42.2 µM
K-562 leukemia
  GI50: 14 µM
  TGI: 44.8 µM
MALME-3M melanoma
  GI50: 14.8 µM
  TGI: 32.7 µM
ACHN renal
  GI50: 14.9 µM
  TGI: 30.6 µM
OVCAR-4 ovarian
  GI50: 13.3 µM
  TGI: 27.6 µM
M14 melanoma
  GI50: 14 µM
  TGI: 29.4 µM
TK-10 renal
  GI50: 22.1 µM
  TGI: 42.4 µM
IGROV1 ovarian
  GI50: 18.3 µM
  TGI: 59 µM
HT29 colon
  GI50: 10.9 µM
  TGI: 25.8 µM
HOP-92 NSCLC
  GI50: 10.3 µM
  TGI: 23.6 µM
DU-145 prostate
  GI50: 19.2 µM
  TGI: 38.4 µM
T-47D breast
  GI50: 5.72 µM
  TGI: 19.7 µM
SW-620 colon
  GI50: 18.4 µM
  TGI: 37.8 µM
KM12 colon
  GI50: 13.3 µM
  TGI: 28.3 µM
SK-MEL-28 melanoma
  GI50: 19.4 µM
  TGI: 35.6 µM
LOX IMVI melanoma
  GI50: 14.8 µM
  TGI: 32 µM
RXF 393 renal
  GI50: 24.5 µM
  TGI: 59.1 µM
SF-295 CNS
  GI50: 19.2 µM
  TGI: 44.4 µM
COLO 205 colon
  GI50: 12.3 µM
  TGI: 25.4 µM
MDA-MB-435
  GI50: 13.4 µM
  TGI: 31 µM
HS 578T breast
  GI50: 23 µM
  TGI: 62.3 µM
MDA-MB-231 breast
  GI50: 11 µM
  TGI: 27.2 µM
786-0 renal
  GI50: 16.8 µM
  TGI: 32.2 µM
